Assay results published in ChEMBL document CHEMBL5154747, “Discovery of new carbonic anhydrase IX inhibitors as anticancer agents by toning the hydrophobic and hydrophilic rims of the active site to encounter the dual-tail approach” (Eur J Med Chem, 2022).

Columns and labels:
PC-3 = assay: Anticancer activity against human PC-3 cells assessed as cell growth inhibition incubated for 48 hrs by SRB assay; type: functional; conditions: read-out: LC50 (the source's name)
MDA-MB-468 = assay: Anticancer activity against human MDA-MB-468 cells assessed as cell growth inhibition incubated for 48 hrs by SRB assay; type: functional; conditions: read-out: LC50 (the source's name)
RXF 393 [1] = assay: Anticancer activity against human RXF 393 cells assessed as cell growth inhibition incubated for 48 hrs by SRB assay; type: functional; conditions: read-out: LC50 (the source's name)
MCF7 = assay: Anticancer activity against human MCF7 cells assessed as cell growth inhibition incubated for 48 hrs by SRB assay; type: functional
NCI/ADR-RES = assay: Anticancer activity against human NCI/ADR-RES cells assessed as cell growth inhibition incubated for 48 hrs by SRB assay; type: functional
HOP-62 = assay: Anticancer activity against human HOP-62 cells assessed as cell growth inhibition incubated for 48 hrs by SRB assay; type: functional
HCC 2998 [2] = assay: Cytotoxicity against human HCC 2998 cells assessed as inhibition of cell viability incubated for 72 hrs under hypoxia condition by MTT assay; type: functional, cell-based; conditions: HCC 2998, 72 h
HCT-116 = assay: Anticancer activity against human HCT-116 cells assessed as cell growth inhibition incubated for 48 hrs by SRB assay; type: functional
Malme-3M = assay: Anticancer activity against human Malme-3M cells assessed as cell growth inhibition incubated for 48 hrs by SRB assay; type: functional
SK-MEL-2 = assay: Anticancer activity against human SK-MEL-2 cells assessed as cell growth inhibition incubated for 48 hrs by SRB assay; type: functional; conditions: read-out: LC50 (the source's name)
SK-MEL-28 = assay: Anticancer activity against human SK-MEL-28 cells assessed as cell growth inhibition incubated for 48 hrs by SRB assay; type: functional; conditions: read-out: LC50 (the source's name)
TK-10 = assay: Anticancer activity against human TK-10 cells assessed as cell growth inhibition incubated for 48 hrs by SRB assay; type: functional; conditions: read-out: LC50 (the source's name)
NCI-H460 = assay: Anticancer activity against human NCI-H460 cells assessed as cell growth inhibition incubated for 48 hrs by SRB assay; type: functional
ACHN = assay: Anticancer activity against human ACHN cells assessed as cell growth inhibition incubated for 48 hrs by SRB assay; type: functional
HL-60(TB) = assay: Anticancer activity against human HL-60(TB) cells assessed as cell growth inhibition incubated for 48 hrs by SRB assay; type: functional
OVCAR-3 = assay: Anticancer activity against human OVCAR-3 cells assessed as cell growth inhibition incubated for 48 hrs by SRB assay; type: functional
K562 = assay: Anticancer activity against human K562 cells assessed as cell growth inhibition incubated for 48 hrs by SRB assay; type: functional; conditions: read-out: LC50 (the source's name)
A498 = assay: Anticancer activity against human A498 cells assessed as cell growth inhibition incubated for 48 hrs by SRB assay; type: functional
OVCAR-5 = assay: Anticancer activity against human OVCAR-5 cells assessed as cell growth inhibition incubated for 48 hrs by SRB assay; type: functional; conditions: read-out: LC50 (the source's name)
SNB-19 = assay: Anticancer activity against human SNB-19 cells assessed as cell growth inhibition incubated for 48 hrs by SRB assay; type: functional; conditions: read-out: LC50 (the source's name)
SR = assay: Anticancer activity against human SR cells assessed as cell growth inhibition incubated for 48 hrs by SRB assay; type: functional; conditions: read-out: LC50 (the source's name)
SN12C = assay: Anticancer activity against human SN12C cells assessed as cell growth inhibition incubated for 48 hrs by SRB assay; type: functional
SF-539 = assay: Anticancer activity against human SF-539 cells assessed as cell growth inhibition incubated for 48 hrs by SRB assay; type: functional
SW-620 = assay: Anticancer activity against human SW-620 cells assessed as cell growth inhibition incubated for 48 hrs by SRB assay; type: functional
RPMI-8226 = assay: Anticancer activity against human RPMI-8226 cells assessed as cell growth inhibition incubated for 48 hrs by SRB assay; type: functional
M14 = assay: Anticancer activity against human M14 cells assessed as cell growth inhibition incubated for 48 hrs by SRB assay; type: functional
A549 = assay: Anticancer activity against human A549 cells assessed as cell growth inhibition incubated for 48 hrs by SRB assay; type: functional
BT-549 = assay: Anticancer activity against human BT-549 cells assessed as cell growth inhibition incubated for 48 hrs by SRB assay; type: functional; conditions: read-out: LC50 (the source's name)
UACC-62 = assay: Anticancer activity against human UACC-62 cells assessed as cell growth inhibition incubated for 48 hrs by SRB assay; type: functional
EKVX = assay: Anticancer activity against human EKVX cells assessed as cell growth inhibition incubated for 48 hrs by SRB assay; type: functional; conditions: read-out: LC50 (the source's name)
MDA-MB-435 = assay: Anticancer activity against human MDA-MB-435 cells assessed as cell growth inhibition incubated for 48 hrs by SRB assay; type: functional
U-251 = assay: Anticancer activity against human U-251 cells assessed as cell growth inhibition incubated for 48 hrs by SRB assay; type: functional
UO-31 = assay: Anticancer activity against human UO-31 cells assessed as cell growth inhibition incubated for 48 hrs by SRB assay; type: functional; conditions: read-out: LC50 (the source's name)
MDA-MB-231 = assay: Anticancer activity against human MDA-MB-231 cells assessed as cell growth inhibition incubated for 48 hrs by SRB assay; type: functional
HCC 2998 [3] = assay: Anticancer activity against human HCC 2998 cells assessed as cell growth inhibition incubated for 48 hrs by SRB assay; type: functional
NCI-H522 = assay: Anticancer activity against human NCI-H522 cells assessed as cell growth inhibition incubated for 48 hrs by SRB assay; type: functional; conditions: read-out: LC50 (the source's name)
KM12 = assay: Anticancer activity against human KM12 cells assessed as cell growth inhibition incubated for 48 hrs by SRB assay; type: functional
IGROV-1 = assay: Anticancer activity against human IGROV-1 cells assessed as cell growth inhibition incubated for 48 hrs by SRB assay; type: functional; conditions: read-out: LC50 (the source's name)
HCT-15 = assay: Anticancer activity against human HCT-15 cells assessed as cell growth inhibition incubated for 48 hrs by SRB assay; type: functional
COLO 205 = assay: Anticancer activity against human COLO 205 cells assessed as cell growth inhibition incubated for 48 hrs by SRB assay; type: functional
HOP-92 = assay: Anticancer activity against human HOP-92 cells assessed as cell growth inhibition incubated for 48 hrs by SRB assay; type: functional; conditions: read-out: LC50 (the source's name)
NCI-H226 = assay: Anticancer activity against human NCI-H226 cells assessed as cell growth inhibition incubated for 48 hrs by SRB assay; type: functional; conditions: read-out: LC50 (the source's name)
HT-29 = assay: Anticancer activity against human HT-29 cells assessed as cell growth inhibition incubated for 48 hrs by SRB assay; type: functional
NCI-H322M = assay: Anticancer activity against human NCI-H322M cells assessed as cell growth inhibition incubated for 48 hrs by SRB assay; type: functional; conditions: read-out: LC50 (the source's name)
DU-145 = assay: Anticancer activity against human DU-145 cells assessed as cell growth inhibition incubated for 48 hrs by SRB assay; type: functional
786-0 = assay: Anticancer activity against human 786-0 cells assessed as cell growth inhibition incubated for 48 hrs by SRB assay; type: functional
CAKI-1 = assay: Anticancer activity against human CAKI-1 cells assessed as cell growth inhibition incubated for 48 hrs by SRB assay; type: functional
RXF 393 [4] = assay: Cytotoxicity against human RXF 393 cells assessed as inhibition of cell viability incubated for 72 hrs under hypoxia condition by MTT assay; type: functional, cell-based; conditions: RXF 393, 72 h
SF-295 = assay: Anticancer activity against human SF-295 cells assessed as cell growth inhibition incubated for 48 hrs by SRB assay; type: functional; conditions: read-out: LC50 (the source's name)
SK-MEL-5 [5] = assay: Anticancer activity against human SK-MEL-5 cells assessed as cell growth inhibition incubated for 48 hrs by SRB assay; type: functional
SK-MEL-5 [6] = assay: Cytotoxicity against human SK-MEL-5 cells assessed as inhibition of cell viability incubated for 72 hrs under hypoxia condition by MTT assay; type: functional, cell-based; conditions: SK-MEL-5, 72 h
NCI-H23 = assay: Anticancer activity against human NCI-H23 cells assessed as cell growth inhibition incubated for 48 hrs by SRB assay; type: functional
MOLT-4 = assay: Anticancer activity against human MOLT-4 cells assessed as cell growth inhibition incubated for 48 hrs by SRB assay; type: functional
CCRF-CEM = assay: Anticancer activity against human CCRF-CEM cells assessed as cell growth inhibition incubated for 48 hrs by SRB assay; type: functional
[7] = read-out: LC50 (the source's name)

O=c1[nH]cc(F)c(=O)[nH]1 [FLUOROURACIL]
CC50 (PC-3): > 100000 nM | CC50 (MDA-MB-468): > 100000 nM | CC50 (RXF 393 [1]): > 100000 nM | GI50 (MCF7): 70 nM | GI50 (NCI/ADR-RES): 310 nM | CC50 (NCI/ADR-RES; [7]): > 100000 nM | GI50 (HOP-62): 390 nM | CC50 (HOP-62; [7]): > 100000 nM | IC50 (HCC 2998 [2]): 12600 nM | GI50 (HCT-116): 220 nM | GI50 (Malme-3M): 50 nM | CC50 (Malme-3M; [7]): > 100000 nM | CC50 (SK-MEL-2): > 100000 nM | CC50 (SK-MEL-28): > 100000 nM | CC50 (TK-10): > 100000 nM | GI50 (NCI-H460): 50 nM | CC50 (NCI-H460; [7]): > 100000 nM | GI50 (ACHN): 270 nM | CC50 (ACHN; [7]): > 100000 nM | GI50 (HL-60(TB)): 2300 nM | CC50 (HL-60(TB); [7]): > 100000 nM | GI50 (OVCAR-3): 10 nM | CC50 (K562): > 100000 nM | GI50 (A498): 350 nM | CC50 (A498; [7]): > 100000 nM | CC50 (OVCAR-5): > 100000 nM | CC50 (SNB-19): > 100000 nM | CC50 (SR): > 100000 nM | GI50 (SN12C): 490 nM | GI50 (SF-539): 60 nM | CC50 (SF-539; [7]): > 100000 nM | GI50 (SW-620): 920 nM | CC50 (SW-620; [7]): > 100000 nM | GI50 (RPMI-8226): 40 nM | GI50 (M14): 980 nM | CC50 (M14; [7]): > 100000 nM | GI50 (A549): 180 nM | CC50 (BT-549): > 100000 nM | GI50 (UACC-62): 520 nM | CC50 (EKVX): > 100000 nM | GI50 (MDA-MB-435): 70 nM | GI50 (U-251): 920 nM | CC50 (U-251; [7]): > 100000 nM | CC50 (UO-31): > 100000 nM | GI50 (MDA-MB-231): 6600 nM | GI50 (HCC 2998 [3]): 50 nM | CC50 (HCC 2998 [3]; [7]): > 100000 nM | CC50 (NCI-H522): > 100000 nM | GI50 (KM12): 210 nM | CC50 (KM12; [7]): > 100000 nM | CC50 (IGROV-1): > 100000 nM | GI50 (HCT-15): 110 nM | CC50 (HCT-15; [7]): > 100000 nM | GI50 (COLO 205): 150 nM | CC50 (COLO 205; [7]): > 100000 nM | CC50 (HOP-92): > 100000 nM | CC50 (NCI-H226): > 100000 nM | GI50 (HT-29): 170 nM | CC50 (HT-29; [7]): > 100000 nM | CC50 (NCI-H322M): > 100000 nM | GI50 (DU-145): 360 nM | GI50 (786-0): 720 nM | CC50 (786-0; [7]): > 100000 nM | GI50 (CAKI-1): 70 nM | CC50 (CAKI-1; [7]): > 100000 nM | IC50 (RXF 393 [4]): 28200 nM | CC50 (SF-295): > 100000 nM | GI50 (SK-MEL-5 [5]): 460 nM | IC50 (SK-MEL-5 [6]): 15300 nM | GI50 (NCI-H23): 330 nM | CC50 (NCI-H23; [7]): > 100000 nM | GI50 (MOLT-4): 350 nM | CC50 (MOLT-4; [7]): > 100000 nM | GI50 (CCRF-CEM): 9970 nM | CC50 (CCRF-CEM; [7]): > 100000 nM
